Some test systems named below: SNB-75 CNS; MDA-N; SR leukemia; T-47D breast; TK-10 renal; MCF7 breast; IGROV1 ovarian; SK-MEL-28 melanoma; NCI-H460 lung; HL-60(TB) leukemia.
Test in all cases: DTP human tumour cell line panel, 48 h

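Method: 48-hour compound exposure of cells in 96-well plates, five concentrations, linear interpolation of endpoints. The concentration for full growth arrest is given as TGI.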

For `COc1ccc(C2SCC(=O)N2N=C2NC(=O)CC(=O)N2)cc1` (configuration not stated), the concentration for total growth inhibition (TGI) in the experiment on SNB-75 CNS, in the experiment with MDA-N, with SR leukemia, with T-47D breast, with TK-10 renal and in the experiment on MCF7 breast was over 100 µM throughout. Also, the TGI in the experiment with IGROV1 ovarian, in the experiment with SK-MEL-28 melanoma and in the experiment with NCI-H460 lung was over 100 µM each time.
On to `CN1CC(c2ccccc2)=Cc2c1ccc(N)c2N=N`, for which the total growth inhibition concentration (TGI) with SNB-75 CNS, in the experiment on MDA-N, in the experiment with SR leukemia, with T-47D breast, in the experiment with TK-10 renal and in the experiment with MCF7 breast was over 100 µM throughout. In addition, the TGI with IGROV1 ovarian, with SK-MEL-28 melanoma and with NCI-H460 lung was over 100 µM throughout.
Consider `CN(C)CC1CCC/C(=C\c2ccc(N(C)C)cc2)C1=O` (configuration not stated), for which the TGI with SNB-75 CNS was 30.7 µM; in the experiment on MDA-N, 19.6 µM; with HL-60(TB) leukemia, over 100 µM; in the experiment on T-47D breast, 4.11 µM; in the experiment on TK-10 renal it was 4.96 µM; in the experiment with MCF7 breast, 2.82 µM. Further, the TGI worked out at 11.8 µM in the experiment on IGROV1 ovarian, 19.1 µM in the experiment with SK-MEL-28 melanoma and 28.5 µM in the experiment on NCI-H460 lung.
Turning to `Cc1cc(-c2ccc(C(=O)C(Cl)(Cl)Cl)[nH]2)on1`, the concentration for total growth inhibition (TGI) is over 100 µM with SNB-75 CNS; over 100 µM in the experiment with MDA-N; 64.6 µM in the experiment on HL-60(TB) leukemia; over 100 µM in the experiment with T-47D breast; 69.1 µM in the experiment on TK-10 renal; over 100 µM in the experiment with SK-MEL-28 melanoma. Further, the TGI with NCI-H460 lung stood at 21.8 µM.
As for `NC1=CN(CCCO)C2=N/C(=C\c3ccco3)C(=O)N12`, the TGI in the experiment with SNB-75 CNS, with MDA-N, with HL-60(TB) leukemia, with T-47D breast, in the experiment on TK-10 renal and with MCF7 breast was over 100 µM throughout. The total growth inhibition concentration (TGI) with IGROV1 ovarian, in the experiment on SK-MEL-28 melanoma and with NCI-H460 lung was over 100 µM each time.
Take `c1ccc(COc2ccc(C[P+](c3ccccc3)(c3ccccc3)c3ccccc3)cc2)cc1`: the TGI with SNB-75 CNS was 2.99 µM; with MDA-N, 5.86 µM; in the experiment on SR leukemia it was over 24.2 µM; with T-47D breast it was 0.839 µM; in the experiment on TK-10 renal it was 1.66 µM; in the experiment on MCF7 breast, 1.52 µM. The TGI in the experiment on IGROV1 ovarian worked out at 12.3 µM; with SK-MEL-28 melanoma, 5.04 µM; with NCI-H460 lung it was 3.81 µM.
For `N#Cc1[nH]c(=O)n(-c2ccc([N+](=O)[O-])cc2)c1N`, the concentration for total growth inhibition (TGI) with SNB-75 CNS, with MDA-N, in the experiment with SR leukemia, in the experiment on HL-60(TB) leukemia, in the experiment with T-47D breast and with TK-10 renal was over 10 µM throughout. Moreover, the total growth inhibition concentration (TGI) in the experiment on IGROV1 ovarian, with SK-MEL-28 melanoma and in the experiment on NCI-H460 lung was over 10 µM throughout.
On to `NCCC1(N)CCNCC1`, for which the total growth inhibition concentration (TGI) in the experiment on SNB-75 CNS, in the experiment on MDA-N, in the experiment with SR leukemia, with HL-60(TB) leukemia, in the experiment with T-47D breast and with TK-10 renal was over 100 µM throughout. Besides, the concentration for total growth inhibition (TGI) in the experiment with IGROV1 ovarian, with SK-MEL-28 melanoma and in the experiment with NCI-H460 lung was over 100 µM in each case.
Take `COC(=O)C(=O)C(C(=O)C(=O)Nc1ccccc1C(=O)OC)c1nc2ccc(C(=O)c3ccccc3)cc2[nH]c1=O` (configuration not stated): the TGI with SNB-75 CNS, with MDA-N, with HL-60(TB) leukemia, in the experiment with T-47D breast, with TK-10 renal and in the experiment with MCF7 breast was over 100 µM each time. Besides, the TGI with IGROV1 ovarian, with SK-MEL-28 melanoma and in the experiment with NCI-H460 lung was over 100 µM in each case.
On to `N/C(CC/C(N)=N\O)=N\O`, for which the TGI in the experiment on SNB-75 CNS, in the experiment on MDA-N, with SR leukemia, with T-47D breast, with TK-10 renal and in the experiment on IGROV1 ovarian was over 100 µM throughout. Also, the TGI in the experiment on SK-MEL-28 melanoma and in the experiment with NCI-H460 lung was over 100 µM in each case.
In the case of `Oc1c(OCc2nnc(CCCCCCCCc3nnc(COc4ccc5ccccc5c4O)n3Nc3ccccc3)n2Nc2ccccc2)ccc2ccccc12`, the TGI in the experiment with SNB-75 CNS is 35.5 µM; in the experiment with MDA-N, 12.8 µM; with T-47D breast, over 100 µM; in the experiment on TK-10 renal, over 64.7 µM; with MCF7 breast, 68.1 µM; in the experiment with IGROV1 ovarian, 31.5 µM. Further, the TGI turned out to be 14.3 µM in the experiment on SK-MEL-28 melanoma and 20.5 µM in the experiment on NCI-H460 lung.
Turning to `O=S(=O)(O)c1ccc(NN(c2c(O)ccc3ccccc23)S(=O)(=O)O)cc1`, the concentration for total growth inhibition (TGI) with MDA-N, in the experiment on SR leukemia, in the experiment with HL-60(TB) leukemia, in the experiment on T-47D breast, in the experiment on TK-10 renal and in the experiment with MCF7 breast was over 100 µM in each case. In addition, the concentration for total growth inhibition (TGI) in the experiment on IGROV1 ovarian, in the experiment on SK-MEL-28 melanoma and in the experiment with NCI-H460 lung was over 100 µM throughout.
Turning to `COc1ccc(CN2C(=O)CCC/C=C\[C@H]2CI)cc1`, the concentration for total growth inhibition (TGI) in the experiment on SNB-75 CNS was 17.5 µM; in the experiment with MDA-N, 25.8 µM; in the experiment on SR leukemia it was over 100 µM; in the experiment with T-47D breast, 6.69 µM; in the experiment on TK-10 renal, 25 µM; in the experiment with MCF7 breast it was 22.5 µM. The TGI with IGROV1 ovarian stood at 29 µM; in the experiment on SK-MEL-28 melanoma, 25.2 µM; in the experiment on NCI-H460 lung, 25.7 µM.
For the compound `CCCCCCCCCCCCNC(=O)NCC(OCC)OCC`, the concentration for total growth inhibition (TGI) in the experiment on SNB-75 CNS, in the experiment with MDA-N, in the experiment with SR leukemia, in the experiment with T-47D breast, with TK-10 renal and with MCF7 breast was over 10 µM in each case. Besides, the concentration for total growth inhibition (TGI) in the experiment on IGROV1 ovarian, in the experiment with SK-MEL-28 melanoma and in the experiment on NCI-H460 lung was over 10 µM in each case.
As to `C/C(=N\Nc1nc2cc(C)ccc2s1)c1ccccn1`, the total growth inhibition concentration (TGI) in the experiment with SNB-75 CNS was 22.7 µM; in the experiment with MDA-N it was over 100 µM; in the experiment with SR leukemia, over 21.8 µM; in the experiment with HL-60(TB) leukemia, 0.699 µM; with T-47D breast, over 89.7 µM; in the experiment on TK-10 renal, over 64 µM. The concentration for total growth inhibition (TGI) in the experiment with SK-MEL-28 melanoma turned out to be 12.1 µM; in the experiment with NCI-H460 lung, 52.8 µM.
As for `CCOC(=O)CC(C)C(C#N)(OP1(=O)OC(c2ccccc2)C(C)N1C)c1ccccc1` (configuration not stated), the TGI is over 100 µM in the experiment on MDA-N; over 100 µM in the experiment with SR leukemia; 78.7 µM in the experiment on HL-60(TB) leukemia; over 100 µM with T-47D breast; over 100 µM with TK-10 renal; over 100 µM in the experiment on MCF7 breast. In addition, the total growth inhibition concentration (TGI) in the experiment on IGROV1 ovarian, with SK-MEL-28 melanoma and in the experiment with NCI-H460 lung was over 100 µM throughout.
Consider `CSc1nc2c(c(N(C)C)n1)C=Nn1c(nc3ccccc31)S2`, for which the TGI in the experiment with SNB-75 CNS, with MDA-N, in the experiment on T-47D breast, with TK-10 renal, in the experiment on IGROV1 ovarian and in the experiment with SK-MEL-28 melanoma was over 100 µM in each case. Further, the TGI in the experiment with NCI-H460 lung was over 100 µM.
As for `Cc1ccc(N=Nc2c(O)c3ccccc3[nH]c2=O)c(S(=O)(=O)N(C)C)c1`, the concentration for total growth inhibition (TGI) in the experiment with SNB-75 CNS, in the experiment on MDA-N, in the experiment with HL-60(TB) leukemia, in the experiment with T-47D breast, in the experiment on TK-10 renal and in the experiment on MCF7 breast was over 100 µM throughout. Further, the total growth inhibition concentration (TGI) in the experiment on IGROV1 ovarian, in the experiment with SK-MEL-28 melanoma and with NCI-H460 lung was over 100 µM in each case.
With `COc1ccc2c(c1O)-c1c(OC)c(OC)cc3c1[C@H](C2)[N+](C)(C)CC3`, the concentration for total growth inhibition (TGI) with SNB-75 CNS, with MDA-N, in the experiment with HL-60(TB) leukemia, in the experiment with T-47D breast, with TK-10 renal and with MCF7 breast was over 100 µM throughout. Moreover, the concentration for total growth inhibition (TGI) with IGROV1 ovarian, in the experiment on SK-MEL-28 melanoma and with NCI-H460 lung was over 100 µM each time.
Take `CC(=O)N[C@@H](Cc1ccc(O)cn1)C(=O)NCc1cccc(F)c1`: the total growth inhibition concentration (TGI) with MDA-N, in the experiment on SR leukemia, in the experiment with HL-60(TB) leukemia, in the experiment on T-47D breast, in the experiment with TK-10 renal and in the experiment with MCF7 breast was over 100 µM each time. The total growth inhibition concentration (TGI) in the experiment on IGROV1 ovarian, with SK-MEL-28 melanoma and with NCI-H460 lung was over 100 µM throughout.
For the compound `O=C1CC(NC(=O)C(F)(F)F)c2c(Br)sc(N3CCC(c4ccccc4)CC3)c21` (configuration not stated), the total growth inhibition concentration (TGI) was over 100 µM in the experiment on SNB-75 CNS; over 100 µM with MDA-N; over 100 µM with HL-60(TB) leukemia; 55.4 µM with T-47D breast; 97.7 µM in the experiment on TK-10 renal; over 100 µM with MCF7 breast. Also, the concentration for total growth inhibition (TGI) with IGROV1 ovarian and in the experiment with NCI-H460 lung was over 100 µM each time.
Consider `O=S(=O)(O)c1cc(Cl)c(O)c2ncc(Cl)cc12`, for which the total growth inhibition concentration (TGI) in the experiment with SNB-75 CNS, with MDA-N, in the experiment with SR leukemia, in the experiment on T-47D breast, with MCF7 breast and in the experiment on IGROV1 ovarian was over 100 µM throughout. In addition, the concentration for total growth inhibition (TGI) in the experiment on SK-MEL-28 melanoma and in the experiment on NCI-H460 lung was over 100 µM in each case.
As to `COc1cc2c(cc1OC)C(=O)N(c1ccc(O)cc1)C2`, the TGI with MDA-N, in the experiment on SR leukemia, in the experiment with HL-60(TB) leukemia, in the experiment with T-47D breast, with TK-10 renal and in the experiment with IGROV1 ovarian was over 100 µM throughout. Also, the concentration for total growth inhibition (TGI) in the experiment on SK-MEL-28 melanoma and with NCI-H460 lung was over 100 µM throughout.

(Values after PubChem BioAssay (NCI).)
